The values below come from PMC6583776 (Journal of the American Chemical Society, 2019).

The test system of one data set is HCV. The format is cell-based. Conditions: time-of-addition; racemic compounds.
Data set [1] relates to cap-dependent translation (Firefly luciferase). It counts as biochemical. The note with it: 1 μM compound, Krebs-2 extracts, relative to DMSO.
A further data set deals with Huh7.5.1 cells. Kind of data set: Cytotoxicity, CellTiter-Glo Cell Viability Luminescent Assay. It counts as cell-based.
Data set [2] relates to HCV IRES-dependent translation (Renilla luciferase). It counts as biochemical. The note with it: 1 μM compound, Krebs-2 extracts, relative to DMSO.
Data set [3] concerns HCV (HCVcc-Luc) infection of Huh7.5.1 cells. Kind of data set: HCV infection inhibition assay. The format is cell-based. The note with it: relative to aglaroxin C (6).
Data set [4] has as its system hepatitis C viral (HCV) entry. Conditions: at a low μM concentration; cited from earlier work.
Another data set relates to translation. Conditions: ref 9p; cited from earlier work.
Data set [5] concerns Dengue virus (serotype 2, Thailand 16681 strain). It counts as cell-based. Conditions: Huh7.5.1 cells, MOI 0.1, 2 μM compound for 3 h, RNA 48 h post-infection.

For the compound `COc1ccc([C@@]23Oc4cc(OC)cc(OC)c4[C@]2(O)c2nc(-c4cccc(OC)c4)[nH]c(=O)c2[C@H]3c2ccccc2)cc1` [12s], in the data set on HCV, the “anti-HCV activity, compound added 3 h after infection was initiated” value is listed as “partially lost their activity” and the “anti-HCV activity, compound added together with the virus” value is recorded as “maximal anti-HCV activity”. Moreover, the “translation inhibition of firefly luciferase (cap-dependent)” value (from here on “translation inhibition … (cap-dependent)”) in data set [1] is recorded as “minimal”. Besides, in the data set on Huh7.5.1 cells, the “cell death at 200 μM” value is listed as “less than 50%”; the cell death reached is recorded as under 50%; the “maximum cytotoxicity plateau, cell death” value stood at 35%. Further, in data set [2], the “inhibition of HCV mRNA (IRES-dependent) translation” value is reported as “not inhibited”. Moreover, the “inhibition of HCV infection in comparison to 6 (fold)” value in data set [3] is reported as “three-fold greater inhibition”.
On to `CONC(=O)[C@H]1[C@@H](O)[C@@]2(O)c3c(OC)cc(OC)cc3O[C@@]2(c2ccc(OC)cc2)[C@@H]1c1ccccc1` [CR-1–31-B], for which the “translation inhibition … (cap-dependent)” value in data set [1] was “strong inhibition”.
Take aglaroxin C [compound 6]: in the data set on HCV, the “anti-HCV activity, compound added 3 h after infection was initiated” value is reported as “partially lost their activity” and the “anti-HCV activity, compound added together with the virus” value was “maximal anti-HCV activity”. Further, the “inhibition of HCV entry into host cells” value in data set [4] is “inhibited”. Besides, in data set [1], the “translation inhibition … (cap-dependent)” value is reported as “minimal”. Moreover, in data set [2], the “inhibition of HCV mRNA (IRES-dependent) translation” value is reported as “not inhibited”. Moreover, in the data set on translation, the “translation inhibition (in words)” value is given as “only moderate translation inhibition”.
As to `COc1ccc([C@@]23Oc4cc(OC)cc(OC)c4[C@]2(O)C2=C(C(=O)N4CCC[C@H]4N2)[C@H]3c2ccccc2)cc1` [compound 5, aglaiastatin], the “translation inhibition (in words)” value with translation is reported as “promising translation inhibitor”.
Regarding `COc1ccc([C@@]23Oc4cc(OC)cc(OC)c4[C@]2(O)[C@H](O)[C@H](C(=O)N(C)C)[C@H]3c2ccccc2)cc1` [rocaglamide], in data set [5], the “inhibition of Dengue virus infection” value is listed as “inhibited”.
